Tests used:
Experiment in all cases: Test E pre-/postemergence greenhouse test
Assay type in all cases: in vivo
[1] = system: dayflower, VA (Virginia (VA) dayflower, Commelina virginica)
Description: (§1) Seeds of plant species selected from corn (Zea mays), soybean (Glycine max), velvetleaf (Abutilon theophrasti), lambsquarters (Chenopodium album), poinsettia, wild (Euphorbia heterophylla), pigweed, palmer (Amaranthus palmeri), waterhemp (common waterhemp, Amaranthus rudis), surinam grass (Brachiaria decumbens), crabgrass, large (Digitaria sanguinalis), crabgrass, Brazil (Digitaria horizontalis), panicum, fall (Panicum dichotomiflorum), foxtail, giant (Setaria faberii), foxtail, green (Setaria viridis), goosegrass (Eleusine indica), johnsongrass (Sorghum halepense), ragweed (common ragweed, Ambrosia elatior), barnyardgrass (Echinochloa crus-galli), sandbur (southern sandbur, Cenchrus echinatus), arrowleaf sida (Sida rhombifolia), ryegrass, Italian (Lolium multiflorum), dayflower, VA (Virginia (VA) dayflower, Commelina virginica), field bindweed (Convolvulus arvensis), morningglory (Ipomoea coccinea), horseweed (Conyza canadensis), kochia (Kochia scoparia), nutsedge, yellow (Cyperus esculentus) and hairy beggarticks (Bidenspilosa), were planted into a silt loam soil and treated preemergence with test chemicals formulated in a non-phytotoxic solvent mixture which included a surfactant.
(§2) At the same time, plants selected from these crop and weed species and also waterhemp_RES1, (ALS & Triazine resistant common waterhemp, Amaranthus rudis), and waterhemp_RES2, (ALS & HPPD resistant common waterhemp, Amaranthus rudis) were planted in pots containing Redi-Earth® planting medium (Scotts Company, 14111 Scottslawn Road, Marysville, Ohio 43041) comprising spaghnum peat moss, vermiculite, wetting agent and starter nutrients were treated with postemergence applications of test chemicals formulated in the same manner. Plants ranged in height from 2 to 18 cm for postemergence treatments (1- to 4-leaf stage). Treated plants and controls were maintained in a greenhouse for 14 to 21 d, after which time all species were compared to controls and visually evaluated. Plant response ratings, summarized in Table E, are based on a scale of 0 to 100 where 0 is no effect and 100 is complete control. A dash (-) response means no test result.

[2] = system: goosegrass (Eleusine indica); conditions: Preemergence
Description: as §1, §2

kochia (Kochia scoparia) = system: kochia (Kochia scoparia)
Description: as §1, §2

[3] = system: sandbur (southern sandbur, Cenchrus echinatus)
Description: as §1, §2

[4] = system: johnsongrass (Sorghum halepense); conditions: Preemergence
Description: as §1, §2

[5] = system: lambsquarters (Chenopodium album); conditions: Preemergence
Description: as §1, §2

[6] = system: hairy beggarticks (Bidenspilosa)
Description: as §1, §2

[7] = system: crabgrass, Brazil (Digitaria horizontalis)
Description: as §1, §2

[8] = system: nutsedge, yellow (Cyperus esculentus); conditions: Preemergence
Description: as §1, §2

[9] = system: poinsettia, wild (Euphorbia heterophylla)
Description: as §1, §2

[10] = system: foxtail, green (Setaria viridis); conditions: Preemergence
Description: as §1, §2

[11] = system: arrowleaf sida (Sida rhombifolia)
Description: as §1, §2

[12] = system: morningglory (Ipomoea coccinea); conditions: Preemergence
Description: as §1, §2

[13] = system: ryegrass, Italian (Lolium multiflorum)
Description: as §1, §2

[14] = system: field bindweed (Convolvulus arvensis)
Description: as §1, §2

Compound: Cc1ccc2ccc(C)c(-c3c(O)c(Cl)nn(C)c3=O)c2c1 [Cpd. No. 20, 6-chloro-4-(2,7-dimethyl-1-naphthalenyl)-5-hydroxy-2-methyl-3(2H)-pyridazinone]
- Plant response rating, Dayflower, VA ([1]; Postemergence, 16 g ai/ha): 30
- Plant response rating, Dayflower, VA ([1]; Postemergence, 31 g ai/ha): 50
- Plant response rating, Dayflower, VA ([1]; Postemergence, 62 g ai/ha): 60
- Plant response rating, Dayflower, VA ([1]; Postemergence, 125 g ai/ha): 70
- Plant response rating, Dayflower, VA ([1]; Preemergence, 16 g ai/ha): 0
- Plant response rating, Dayflower, VA ([1]; Preemergence, 31 g ai/ha): 0
- Plant response rating, Dayflower, VA ([1]; Preemergence, 62 g ai/ha): 0
- Plant response rating, Dayflower, VA ([1]; Preemergence, 125 g ai/ha): 5
- Plant response rating, Goosegrass ([2]; 16 g ai/ha): 0
- Plant response rating, Goosegrass ([2]; 31 g ai/ha): 0
- Plant response rating, Goosegrass ([2]; 62 g ai/ha): 30
- Plant response rating, Goosegrass ([2]; 125 g ai/ha): 75
- Plant response rating, Kochia (kochia (Kochia scoparia); Postemergence, 16 g ai/ha): 80
- Plant response rating, Kochia (kochia (Kochia scoparia); Postemergence, 31 g ai/ha): 75
- Plant response rating, Kochia (kochia (Kochia scoparia); Postemergence, 62 g ai/ha): 80
- Plant response rating, Kochia (kochia (Kochia scoparia); Postemergence, 125 g ai/ha): 90
- Plant response rating, Kochia (kochia (Kochia scoparia); Preemergence, 16 g ai/ha): 0
- Plant response rating, Kochia (kochia (Kochia scoparia); Preemergence, 31 g ai/ha): 50
- Plant response rating, Kochia (kochia (Kochia scoparia); Preemergence, 62 g ai/ha): 70
- Plant response rating, Kochia (kochia (Kochia scoparia); Preemergence, 125 g ai/ha): 85
- Plant response rating, Sandbur ([3]; Postemergence, 16 g ai/ha): 60
- Plant response rating, Sandbur ([3]; Postemergence, 31 g ai/ha): 60
- Plant response rating, Sandbur ([3]; Postemergence, 62 g ai/ha): 70
- Plant response rating, Sandbur ([3]; Postemergence, 125 g ai/ha): 85
- Plant response rating, Sandbur ([3]; Preemergence, 16 g ai/ha): 30
- Plant response rating, Sandbur ([3]; Preemergence, 31 g ai/ha): 75
- Plant response rating, Sandbur ([3]; Preemergence, 62 g ai/ha): 85
- Plant response rating, Sandbur ([3]; Preemergence, 125 g ai/ha): 90
- Plant response rating, Johnsongrass ([4]; 16 g ai/ha): 0
- Plant response rating, Johnsongrass ([4]; 31 g ai/ha): 0
- Plant response rating, Johnsongrass ([4]; 125 g ai/ha): 50
- Plant response rating, Lambsquarters ([5]; 16 g ai/ha): 80
- Plant response rating, Lambsquarters ([5]; 31 g ai/ha): 95
- Plant response rating, Lambsquarters ([5]; 62 g ai/ha): 98
- Plant response rating, Lambsquarters ([5]; 125 g ai/ha): 100
- Plant response rating, Beggarticks ([6]; Postemergence, 16 g ai/ha): 90
- Plant response rating, Beggarticks ([6]; Postemergence, 31 g ai/ha): 95
- Plant response rating, Beggarticks ([6]; Postemergence, 62 g ai/ha): 95
- Plant response rating, Beggarticks ([6]; Postemergence, 125 g ai/ha): 100
- Plant response rating, Beggarticks ([6]; Preemergence, 16 g ai/ha): 20
- Plant response rating, Beggarticks ([6]; Preemergence, 31 g ai/ha): 90
- Plant response rating, Beggarticks ([6]; Preemergence, 62 g ai/ha): 95
- Plant response rating, Beggarticks ([6]; Preemergence, 125 g ai/ha): 100
- Plant response rating, Crabgrass, Brazil ([7]; Postemergence, 16 g ai/ha): 20
- Plant response rating, Crabgrass, Brazil ([7]; Postemergence, 31 g ai/ha): 40
- Plant response rating, Crabgrass, Brazil ([7]; Postemergence, 62 g ai/ha): 60
- Plant response rating, Crabgrass, Brazil ([7]; Postemergence, 125 g ai/ha): 85
- Plant response rating, Crabgrass, Brazil ([7]; Preemergence, 16 g ai/ha): 75
- Plant response rating, Crabgrass, Brazil ([7]; Preemergence, 31 g ai/ha): 90
- Plant response rating, Crabgrass, Brazil ([7]; Preemergence, 62 g ai/ha): 100
- Plant response rating, Crabgrass, Brazil ([7]; Preemergence, 125 g ai/ha): 100
- Plant response rating, Nutsedge, Yellow ([8]; 16 g ai/ha): 10
- Plant response rating, Nutsedge, Yellow ([8]; 31 g ai/ha): 15
- Plant response rating, Nutsedge, Yellow ([8]; 62 g ai/ha): 75
- Plant response rating, Nutsedge, Yellow ([8]; 125 g ai/ha): 75
- Plant response rating, Poinsettia, Wild ([9]; Postemergence, 16 g ai/ha): 20
- Plant response rating, Poinsettia, Wild ([9]; Postemergence, 31 g ai/ha): 50
- Plant response rating, Poinsettia, Wild ([9]; Postemergence, 62 g ai/ha): 40
- Plant response rating, Poinsettia, Wild ([9]; Postemergence, 125 g ai/ha): 50
- Plant response rating, Poinsettia, Wild ([9]; Preemergence, 16 g ai/ha): 0
- Plant response rating, Poinsettia, Wild ([9]; Preemergence, 31 g ai/ha): 0
- Plant response rating, Poinsettia, Wild ([9]; Preemergence, 62 g ai/ha): 0
- Plant response rating, Poinsettia, Wild ([9]; Preemergence, 125 g ai/ha): 0
- Plant response rating, Foxtail, Green ([10]; 16 g ai/ha): 35
- Plant response rating, Foxtail, Green ([10]; 31 g ai/ha): 80
- Plant response rating, Foxtail, Green ([10]; 62 g ai/ha): 100
- Plant response rating, Foxtail, Green ([10]; 125 g ai/ha): 100
- Plant response rating, Arrowleaf Sida ([11]; Postemergence, 16 g ai/ha): 60
- Plant response rating, Arrowleaf Sida ([11]; Postemergence, 31 g ai/ha): 70
- Plant response rating, Arrowleaf Sida ([11]; Postemergence, 62 g ai/ha): 70
- Plant response rating, Arrowleaf Sida ([11]; Postemergence, 125 g ai/ha): 75
- Plant response rating, Arrowleaf Sida ([11]; Preemergence, 16 g ai/ha): 90
- Plant response rating, Arrowleaf Sida ([11]; Preemergence, 31 g ai/ha): 90
- Plant response rating, Arrowleaf Sida ([11]; Preemergence, 62 g ai/ha): 80
- Plant response rating, Arrowleaf Sida ([11]; Preemergence, 125 g ai/ha): 85
- Plant response rating, Morningglory ([12]; 16 g ai/ha): 10
- Plant response rating, Morningglory ([12]; 31 g ai/ha): 20
- Plant response rating, Morningglory ([12]; 62 g ai/ha): 60
- Plant response rating, Morningglory ([12]; 125 g ai/ha): 100
- Plant response rating, Ryegrass, Italian ([13]; Postemergence, 16 g ai/ha): 70
- Plant response rating, Ryegrass, Italian ([13]; Postemergence, 31 g ai/ha): 80
- Plant response rating, Ryegrass, Italian ([13]; Postemergence, 62 g ai/ha): 85
- Plant response rating, Ryegrass, Italian ([13]; Postemergence, 125 g ai/ha): 90
- Plant response rating, Ryegrass, Italian ([13]; Preemergence, 16 g ai/ha): 0
- Plant response rating, Ryegrass, Italian ([13]; Preemergence, 31 g ai/ha): 25
- Plant response rating, Ryegrass, Italian ([13]; Preemergence, 62 g ai/ha): 98
- Plant response rating, Ryegrass, Italian ([13]; Preemergence, 125 g ai/ha): 95
- Plant response rating, Field Bindweed ([14]; Postemergence, 16 g ai/ha): 75
- Plant response rating, Field Bindweed ([14]; Postemergence, 31 g ai/ha): 90
- Plant response rating, Field Bindweed ([14]; Postemergence, 62 g ai/ha): 90
- Plant response rating, Field Bindweed ([14]; Postemergence, 125 g ai/ha): 90
- Plant response rating, Field Bindweed ([14]; Preemergence, 16 g ai/ha): 5
- Plant response rating, Field Bindweed ([14]; Preemergence, 31 g ai/ha): 85
- Plant response rating, Field Bindweed ([14]; Preemergence, 62 g ai/ha): 90
- Plant response rating, Field Bindweed ([14]; Preemergence, 125 g ai/ha): 100

Source: patent publication US12435044B2, “Pyridazinone herbicides and pyridazinone intermediates used to prepare a herbicide” (FMC Corporation, priority 2018, dated 2025)
